Source: patent publication US20230346831A1, “METHODS FOR TREATING […] USING LOW DOSE CARBON MONOXIDE” (priority 2020, published 2023)
Values joined by “and” are separate entries in the source; they are usually repeats but may differ in a detail not shown here. Identical values can stand only once.

System: MDA-MB-231/TGL cells
Assay: metabolomic assay (polar metabolite profiling, mass spectrometry)
Type: cell-based, human
Settings: MDA-MB-231/TGL cells treated with CO (250 ppm); replicates CO 1-3
Description: Cells were seeded in a 10 cm cell culture plate with DMEM containing 10% FBS, 0.2 mM L-glutamine and 1% penicillin/streptomycin. After 16 hours of incubation, metabolites were extracted from the cells using 80% methanol. The remaining steps were carried out with no change according to the methods of Goncalves et al, PNAS, 115:4, E743-E752 (2018). All data analyses were done using MetaboAnalyst.
7 × 10^6 cells were seeded in 10-cm cell culture plates with DMEM containing 10% FBS, 0.2 mM L-glutamine and 1% penicillin/streptomycin. Additionally, MCF7/TGL/pQ was cultured in media containing 0.5 µgml^-1 puromycin and 25 mM HEPES. After 16 hours of incubation, metabolites were extracted from the cells using 80% methanol. The remaining steps were carried out by Weill Cornell Medicine Proteomics and Metabolomics Core Facility according to M. D. Goncalves et al., Proc Natl Acad Sci USA 115, E743-E752 (2018). All data analyses were done using MetaboAnalyst 4.0 (www.metaboanalyst.ca/).
To investigate whether 250 ppm CO mimics hypoxia, the HiF1α protein levels were examined in CO treated MCF7/TGL and MDA-MB-231/TGL cells. […] To determine whether 250 ppm CO affects metabolism, polar metabolites were profiled using two breast cancer cell lines, MCF7/TGL and MDA-MB-231/TGL (FIGS. 7-9).

## [C-]#[O+] [CO, Carbon monoxide]
  Peak Height of metabolite intensity: L-Aspartic acid (HMDB00191): 9,529,167 and 11,274,240 and 16,105,810
  Peak Height of metabolite intensity: L-Carnitine (HMDB00062): 180,708,600 and 186,528,100 and 206,022,400
  Peak Height of metabolite intensity: L-Cystathionine (HMDB00099): 371,785 and 449,627 and 589,036
  Peak Height of metabolite intensity: L-Dihydroorotic acid (HMDB03349): 281,053 and 429,139 and 448,915
  Peak Height of metabolite intensity: L-Glutamic acid (HMDB00148): 655,681,000 and 727,466,400 and 916,546,500
  Peak Height of metabolite intensity: L-Glutamine (HMDB00641): 1,601,450,000 and 1,636,785,000 and 1,523,599,000
  Peak Height of metabolite intensity: L-Histidine (HMDB00177): 120,776,800 and 113,578,300 and 158,867,000
  Peak Height of metabolite intensity: L-Isoleucine (HMDB00172): 271,615,500 and 275,153,400 and 327,851,400
  Peak Height of metabolite intensity: L-Kynurenine (HMDB00684): 280,930 and 306,374 and 392,315
  Peak Height of metabolite intensity: L-Lactic acid (HMDB00190): 289,904,000 and 340,883,500 and 383,011,600
  Peak Height of metabolite intensity: L-Leucine (HMDB00687): 283,061,200 and 273,188,600 and 323,263,900
  Peak Height of metabolite intensity: L-Lysine (HMDB00182): 24,306,150 and 24,075,250 and 28,401,380
  Peak Height of metabolite intensity: L-Methionine (HMDB00696): 84,626,580 and 79,234,880 and 99,088,640
  Peak Height of metabolite intensity: L-Palmitoylcarnitine (HMDB00222): 73,260 and 167,693 and 194,186
  Peak Height of metabolite intensity: L-Phenylalanine (HMDB00159): 221,726,300 and 225,785,500 and 288,325,000
  Peak Height of metabolite intensity: L-Proline (HMDB00162): 612,301,800 and 622,349,000 and 718,183,500
  Peak Height of metabolite intensity: L-Serine (HMDB00187): 47,600,670 and 48,117,350 and 49,703,860
  Peak Height of metabolite intensity: L-Threonine (HMDB00167): 137,793,200 and 134,164,900 and 175,180,900
  Peak Height of metabolite intensity: L-Tryptophan (HMDB00929): 29,250,240 and 30,006,710 and 37,673,960
  Peak Height of metabolite intensity: L-Tyrosine (HMDB00158): 62,958,740 and 63,148,990 and 80,943,860
  Peak Height of metabolite intensity: L-Valine (HMDB00883): 112,753,800 and 120,589,500 and 133,489,100
  Peak Height of metabolite intensity: Malic acid (HMDB00744): 185,995,600 and 208,411,100 and 232,110,400
  Peak Height of metabolite intensity: Mannitol (HMDB00765): 9,124,205 and 9,515,589 and 10,944,240
  Peak Height of metabolite intensity: Methionine sulfoxide (HMDB02005): 1,343,863 and 1,483,506 and 1,747,311
  Peak Height of metabolite intensity: Methylimidazoleacetic acid (HMDB02820): 1,358,938 and 1,418,950 and 1,508,563
  Peak Height of metabolite intensity: Myoinositol (HMDB00211): 29,719,830 and 34,248,940 and 40,470,300
  Peak Height of metabolite intensity: N6,N6,N6-Trimethyl-L-lysine (HMDB01325): 1,450,139 and 1,666,314 and 1,913,626
  Peak Height of metabolite intensity: N6-Acetyl-L-lysine (HMDB00206): 127,774 and 112,788 and 139,608
  Peak Height of metabolite intensity: N-Acetyl-L-alanine (HMDB00766): 3,499,773 and 3,556,484 and 4,596,263
  Peak Height of metabolite intensity: N-Acetyl-L-aspartic acid (HMDB00812): 82,644,790 and 91,504,070 and 102,958,000
  Peak Height of metabolite intensity: N-Acetyl-L-methionine (HMDB11745): 2,318,960 and 1,894,539 and 2,276,345
  Peak Height of metabolite intensity: N-Acetyl-glucosamine 1-phosphate (HMDB01367): 1,300,461 and 800,586 and 850,336
  Peak Height of metabolite intensity: N-Acetylasparagine (HMDB06028): 90,904 and 92,805 and 102,592
  Peak Height of metabolite intensity: N-Acetylaspartylglutamic acid (HMDB01067): 473,464 and 613,919 and 690,837
  Peak Height of metabolite intensity: N-Acetylglutamic acid (HMDB01138): 7,524,119 and 8,837,337 and 8,010,711
  Peak Height of metabolite intensity: N-Acetylglutamine (HMDB06029): 1,923,159 and 2,058,882 and 2,006,294
  Peak Height of metabolite intensity: N-Acetylornithine (HMDB03357): 261,750 and 259,387 and 327,139
  Peak Height of metabolite intensity: N-Acetylputrescine (HMDB02064): 5,287,508 and 7,257,189 and 5,943,667
  Peak Height of metabolite intensity: N-Formyl-L-methionine (HMDB01015): 2,242,009 and 2,343,563 and 2,318,203
  Peak Height of metabolite intensity: NAD (HMDB00902): 17,332,970 and 21,051,080 and 23,992,650
  Peak Height of metabolite intensity: NADH (HMDB01487): 583,067 and 148,307 and 116,715
  Peak Height of metabolite intensity: NADP (HMDB00217): 120,286 and 98,434 and 96,478
  Peak Height of metabolite intensity: NADPH (HMDB00221): 71,492 and 67,909 and 76,928
  Peak Height of metabolite intensity: Niacinamide (HMDB01406): 1,982,720 and 1,686,510 and 1,871,343
